From patent publication US8952024B2, “Herbicidal pyrimidone derivatives” (E I du Pont de Nemours and Company, priority 2009, dated 2015)

Assays:
Assay type in all cases: in vivo
[1] = tested on: groundsel (common groundsel, Senecio vulgaris); experiment: Test D pre-/postemergence plant response; conditions: Postemergence
Excerpt: (§1) Seeds of plant species selected from bermudagrass (Cynodon dactylon), Surinam grass (Brachiaria decumbens), large crabgrass (Digitaria sanguinalis), green foxtail (Setaria viridis), goosegrass (Eleusine indica), johnsongrass (Sorghum halepense), kochia (Kochia scoparia), morningglory (pitted morningglory, Ipomoea lacunosa), nutsedge (purple nutsedge, Cyperus rotundus), ragweed (common ragweed, Ambrosia elatior), black mustard (Brassica nigra), guineagrass (Panicum maximum), dallisgrass (Paspalum dilatatum), barnyardgrass (Echinochloa crus-galli), sandbur (southern sandbur, Cenchrus echinatus), sowthistle (common sowthistle, Sonchus oleraceous), prickly sida (Sida spinosa), Italian ryegrass (Lolium multiflorum), purslane (common purslane, Portulaca oleracea), signalgrass (broadleaf signalgrass, Brachiaria platyphylla), groundsel (common groundsel, Senecio vulgaris), chickweed (common chickweed, Stellaria media), dayflower (Virginia (VA) dayflower, Commelina virginica), bluegrass (annual bluegrass, Poa annua), naked crabgrass (Digitaria nuda), itchgrass (Rottboellia cochinchinensis), quackgrass (Elytrigia repens), field bindweed (Convolvulus arvensis), spanishneedles (Bidens bipinnata), mallow (common mallow, Malva sylvestris) and Russian thistle (Salsola kali), were planted into a blend of loam soil and sand and treated preemergence with test chemicals formulated in a non-phytotoxic solvent mixture which included a surfactant. At the same time, plants from these weed species were treated with postemergence applications of the test chemicals formulated in the same manner. Plants ranged in height from 2 to 18 cm (1- to 4-leaf stage) for postemergence treatments.
(§2) Treated plants and controls were maintained in a greenhouse for 14 to 21 days, after which time all species were visually evaluated and compared to controls. Plant response ratings, summarized in Table D, are based on a scale of 0 to 100 where 0 is no effect and 100 is complete control. A dash (-) response means no test result.

[2] = tested on: bermudagrass (Cynodon dactylon); experiment: Test D pre-/postemergence plant response
Excerpt: as §1, §2

[3] = tested on: ragweed (common ragweed, Ambrosia elatior); experiment: Test D pre-/postemergence plant response
Excerpt: as §1, §2

[4] = tested on: dallisgrass (Paspalum dilatatum); experiment: Test D pre-/postemergence plant response
Excerpt: as §1, §2

[5] = tested on: spanishneedles (Bidens bipinnata); experiment: Test D pre-/postemergence plant response
Excerpt: as §1, §2

[6] = tested on: prickly sida (Sida spinosa); experiment: Test D pre-/postemergence plant response
Excerpt: as §1, §2

[7] = tested on: dayflower (Virginia (VA) dayflower, Commelina virginica); experiment: Test D pre-/postemergence plant response
Excerpt: as §1, §2

[8] = tested on: sandbur (southern sandbur, Cenchrus echinatus); experiment: Test D pre-/postemergence plant response
Excerpt: as §1, §2

[9] = tested on: quackgrass (Elytrigia repens); experiment: Test D pre-/postemergence plant response
Excerpt: as §1, §2

[10] = tested on: nightshade (eastern black nightshade, Solanum ptycanthum); experiment: Test B pre-/postemergence plant response; conditions: Preemergence; for Nightshade plant response rating: 250 g ai/ha, 0 to 100 scale
In short: (§3)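 Seeds sown in loam–sand blend were treated preemergence, and plants at 2–18 cm (1- to 4-leaf stage) in peat-based medium were treated postemergence; compounds were formulated in non-phytotoxic solvent with surfactant. After 13–15 days in greenhouse, response was visually rated against controls, 0 (no effect) to 100 (complete control).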

[11] = tested on: sunflower (common oilseed sunflower, Helianthus annuus); experiment: Test B pre-/postemergence plant response; conditions: Preemergence; for Sunflower plant response rating: 250 g ai/ha, 0 to 100 scale
In short: as §3

[12] = tested on: galium (catchweed bedstraw, Galium aparine); experiment: Test B pre-/postemergence plant response; conditions: Preemergence; for Galium plant response rating: 250 g ai/ha, 0 to 100 scale
In short: as §3

[13] = tested on: Russian thistle (Salsola kali); experiment: Test D pre-/postemergence plant response; conditions: Postemergence, 125 g ai/ha; scale 0 to 100 (0 no effect, 100 complete control)
Excerpt: as §1, §2

[14] = 62 g ai/ha, scale 0 to 100 (0 no effect, 100 complete control)
[15] = 125 g ai/ha, scale 0 to 100 (0 no effect, 100 complete control)
[16] = Postemergence, 31 g ai/ha, scale 0 to 100 (0 no effect, 100 complete control)
[17] = Postemergence, 62 g ai/ha, scale 0 to 100 (0 no effect, 100 complete control)
[18] = Postemergence, 125 g ai/ha, scale 0 to 100 (0 no effect, 100 complete control)
[19] = Postemergence, 16 g ai/ha, scale 0 to 100
[20] = Preemergence, 16 g ai/ha, scale 0 to 100, 0 no effect, 100 complete control
[21] = Preemergence, 31 g ai/ha, scale 0 to 100 (0 no effect, 100 complete control)
[22] = Preemergence, 62 g ai/ha, scale 0 to 100
[23] = Preemergence, 125 g ai/ha, scale 0 to 100
[24] = Postemergence, 31 g ai/ha, scale 0 to 100
[25] = Preemergence, rate not given, scale 0 to 100, 0 no effect, 100 complete control
[26] = 31 g ai/ha, scale 0 to 100 (0 no effect, 100 complete control)
[27] = 125 g ai/ha, scale 0 to 100, 0 no effect, 100 complete control

COCCn1c(-c2ccccc2)ncc(C(=O)C2=C(O)CCCC2=O)c1=O [Compound 85]
Plant response rating, Groundsel ([1]; 31 g ai/ha, scale 0 to 100): 100 | Plant response rating, Groundsel [1, 14]: 100 | Plant response rating, Groundsel [1, 15]: 100 | Plant response rating, Groundsel ([1]; 16 g ai/ha, scale 0 to 100): 100 | Plant response rating, Bermudagrass [2, 16]: 75 | Plant response rating, Bermudagrass [2, 17]: 80 | Plant response rating, Bermudagrass [2, 18]: 90 | Plant response rating, Bermudagrass [2, 19]: 65 | Plant response rating, Bermudagrass [2, 20]: 80 | Plant response rating, Bermudagrass [2, 21]: 100 | Plant response rating, Bermudagrass [2, 22]: 100 | Plant response rating, Bermudagrass [2, 23]: 100 | Plant response rating, Ragweed [3, 24]: 80 | Plant response rating, Ragweed [3, 17]: 80 | Plant response rating, Ragweed [3, 18]: 100 | Plant response rating, Ragweed [3, 19]: 80 | Plant response rating, Ragweed [3, 20]: 90 | Plant response rating, Ragweed [3, 21]: 95 | Plant response rating, Ragweed [3, 23]: 100 | Plant response rating, Ragweed [3, 25]: 100 | Plant response rating, Dallisgrass [4, 24]: 25 | Plant response rating, Dallisgrass [4, 17]: 65 | Plant response rating, Dallisgrass [4, 18]: 80 | Plant response rating, Dallisgrass [4, 19]: 15 | Plant response rating, Dallisgrass [4, 20]: 50 | Plant response rating, Dallisgrass [4, 21]: 80 | Plant response rating, Dallisgrass [4, 22]: 95 | Plant response rating, Dallisgrass [4, 23]: 98 | Plant response rating, Spanishneedles [5, 24]: 75 | Plant response rating, Spanishneedles [5, 17]: 90 | Plant response rating, Spanishneedles [5, 18]: 95 | Plant response rating, Spanishneedles [5, 19]: 75 | Plant response rating, Spanishneedles [5, 20]: 90 | Plant response rating, Spanishneedles [5, 21]: 98 | Plant response rating, Spanishneedles [5, 23]: 100 | Plant response rating, Spanishneedles [5, 25]: 98 | Plant response rating, Prickly Sida [6, 24]: 95 | Plant response rating, Prickly Sida [6, 17]: 95 | Plant response rating, Prickly Sida [6, 18]: 98 | Plant response rating, Prickly Sida [6, 20]: 90 | Plant response rating, Prickly Sida [6, 21]: 100 | Plant response rating, Prickly Sida [6, 22]: 100 | Plant response rating, Prickly Sida [6, 23]: 100 | Plant response rating, Dayflower, VA [7, 24]: 30 | Plant response rating, Dayflower, VA [7, 17]: 60 | Plant response rating, Dayflower, VA [7, 18]: 80 | Plant response rating, Dayflower, VA [7, 19]: 20 | Plant response rating, Dayflower, VA [7, 20]: 5 | Plant response rating, Dayflower, VA [7, 21]: 10 | Plant response rating, Dayflower, VA [7, 22]: 90 | Plant response rating, Dayflower, VA [7, 23]: 95 | Plant response rating, Sandbur [8, 24]: 50 | Plant response rating, Sandbur [8, 17]: 65 | Plant response rating, Sandbur [8, 18]: 95 | Plant response rating, Sandbur [8, 19]: 10 | Plant response rating, Sandbur [8, 20]: 5 | Plant response rating, Sandbur [8, 21]: 5 | Plant response rating, Sandbur [8, 23]: 98 | Plant response rating, Quackgrass [9, 24]: 0 | Plant response rating, Quackgrass [9, 17]: 15 | Plant response rating, Quackgrass [9, 18]: 20 | Plant response rating, Quackgrass [9, 19]: 0 | Plant response rating, Quackgrass [9, 20]: 0 | Plant response rating, Quackgrass [9, 21]: 0 | Plant response rating, Quackgrass [9, 23]: 20

CCc1ccc(-n2c(-c3ccccc3)ncc(C(=O)C3=C(O)CCCC3=O)c2=O)cc1 [Compound 219]
Plant response rating, Nightshade [10, 26]: 90 | Plant response rating, Nightshade [10, 14]: 98 | Plant response rating, Nightshade [10, 27]: 100 | Nightshade plant response rating [10]: 100 | Plant response rating, Sunflower [11, 26]: 0 | Plant response rating, Sunflower [11, 14]: 45 | Plant response rating, Sunflower [11, 27]: 80 | Sunflower plant response rating [11]: 85 | Plant response rating, Galium [12, 26]: 75 | Plant response rating, Galium [12, 14]: 85 | Plant response rating, Galium [12, 27]: 98 | Galium plant response rating [12]: 100

COCCn1c(-c2ccsc2)ncc(C(=O)C2=C(O)C3CCC(C3)C2=O)c1=O (stereo not shown) [Compound 228]
Plant response rating, Groundsel [1, 15]: 100 | Plant response rating, Bermudagrass [2, 16]: 70 | Plant response rating, Bermudagrass [2, 18]: 70 | Plant response rating, Ragweed [3, 18]: 75 | Plant response rating, Dallisgrass [4, 18]: 5 | Plant response rating, Russian Thistle [13]: 65 | Plant response rating, Spanishneedles [5, 18]: 70 | Plant response rating, Prickly Sida [6, 18]: 65 | Plant response rating, Dayflower, VA [7, 18]: 85 | Plant response rating, Sandbur [8, 18]: 5 | Plant response rating, Quackgrass [9, 18]: 5

CCc1ccccc1-n1c(-c2ccccc2)ncc(C(=O)C2=C(O)CCCC2=O)c1=O [Compound 255]
Plant response rating, Nightshade [10, 26]: 75 | Plant response rating, Nightshade [10, 14]: 90 | Plant response rating, Nightshade [10, 27]: 100 | Nightshade plant response rating [10]: 100 | Plant response rating, Sunflower [11, 26]: 45 | Plant response rating, Sunflower [11, 14]: 60 | Plant response rating, Sunflower [11, 27]: 75 | Sunflower plant response rating [11]: 90 | Plant response rating, Galium [12, 26]: 0 | Plant response rating, Galium [12, 14]: 50 | Plant response rating, Galium [12, 27]: 60 | Galium plant response rating [12]: 100
